The values that follow come from publication PMC7178755 (Toxicology and applied pharmacology, 2019).

Each structure is given as a SMILES string.

A short description of data set [1]: Plasma toxicokinetics after single intravenous administration in rats. It is filed as in vivo, Harlan Sprague Dawley rats. Particulars: for AUC(0-inf) / Cmax / Vd: Hsd:Sprague Dawley SD, rat, iv, 34 mg/kg.
For data set [2] the following is noted: free BPAF; rats; single gavage 20 and 100 mg/kg; ref Li et al. (2013); cited from earlier work.
Where [3] appears, read: free BPAF, female rats, 34 mg/kg IV, mean (SE).
The mark [4] stands for this setting: free BPAF, male rats, 34 mg/kg IV, mean (SE).

In data set [1] (female), `Oc1ccc(C(c2ccc(O)cc2)(C(F)(F)F)C(F)(F)F)cc1` [BPAF, Bisphenol AF] came in with an AUC(0-inf) of 45300 ng·h/mL, a Cmax of 71.5 µg/mL and a Vd of 0.697 L/kg. In data set [1] (setting [3]), the Cl1 is 0.751 (0.118) L/h/kg, the K12 is on record as 0.0656 (0.0398) 1/h, the K21 was 0.141 (0.0339) 1/h and the V1 is on record as 0.476 (0.115) L/kg. Also, in data set [1] (setting [3]), the V2 is 0.222 (0.0922) L/kg. In data set [1] (setting [4]), the Cl1 was 0.753 (0.102) L/h/kg, the Cl2 was 0.0225 (0.00797) L/h /kg, the K12 was 0.0503 (0.0151) 1/h and the K21 is reported as 0.0892 (0.0147) 1/h. In data set [1] (setting [4]), the V1 is 0.448 (0.0811) L/kg and the V2 is 0.253 (0.0785) L/kg. In data set [1] (male), the AUC(0-inf) was found to be 45200 ng·h/mL, the Cmax stood at 75.9 µg/mL and the Vd came out at 0.7 L/kg. Also, in data set [2], the “Tmax (maximum plasma BPAF concentration observed at)” value is recorded as 1 h.

Broadly, the AUC(0-inf) is the area under the concentration-time curve extrapolated to infinity. Low readings indicate low exposure, high ones high exposure. As usually defined, the Cmax is the highest concentration seen after dosing. One may read the Vd as the apparent volume that relates the amount in the body to the concentration in plasma or blood.
